# Data taken from patent publication US20120328549A1, “OIL COMPOSITIONS” (ANTERIOS, INC., priority 2011, published 2012).
# Tested on: Axillary Sweating
# Assay: Clinical study of axillary sweating by gravimetric sweat measurement, double-blind versus placebo (water)
# Type: in vivo, human
# Description: The purpose of the study was to determine if Labrafac® Lipophile WL 1349 is biologically active in reducing sweating. […] Some subjects received treatment with the potentially biologically active substance and some subjects received treatment with a placebo, i.e. water. Neither the subject nor the investigator knew which treatment the subject was receiving.
# Two weeks after a single treatment, subjects were re-assessed by gravimetric sweat measurement to determine the degree of sweat reduction. A comparison of post-treatment sweat production between the treatment groups was made to determine the degree of sweat reduction by the potentially biologically active substance.
# • able to understand and give written informed consent • ages 18-70 years of age • diagnosis of moderate to severe primary axillary hyperhidrosis • Hyperhidrosis Disease Severity Scale score of >3 (the HDSS scale is described below) • >50 mg of sweat production/axilla in 5 minutes as measured gravimetrically • willingness to use only over-the-counter deodorants during the course of the study • willingness to shave underarms prior to each study visit • female subjects must have a negative urine pregnancy test and be non-lactating at the initial (“Baseline”) study site visit • patients should be in good general health as determined by the investigator and free of any disease that may interfere with study evaluations
# The sweat production of the subject is measured gravimetrically by the following procedure: • The subject was placed in a room with relatively constant temperature and humidity for at least 30 min. • The subject was placed in a semi-reclining position with the axilla fully exposed and the arm resting comfortably above the head. • The subject's axilla was dried gently with a cotton gauze pad. • The investigator used a forceps to place one filter paper (90 mm diameter) on a balance sensitive to 0.1 mg and recorded its weight. • The investigator used a forceps to place the measured filter paper on the axilla, covered it with plastic and taped the edges of the bag against the subject's skin with hypoallergenic tape to form a seal around the plastic bag. • After 5 minutes, the investigator gently removed the tape and plastic from the subject's axilla and then, using forceps, immediately placed the filter paper onto the scale to record its weight. The scale was then dried and zero balanced. • This measurement was then repeated as described above with the other axilla.
# If the subject was eligible for treatment on this basis, the subject was then treated. For treatment, one of the study preparations (0.3 mL/axilla) was applied topically with a gloved finger by the investigator to the subject's skin of the axilla. The preparation was administered in small increments to avoid run-off. The liquid was rubbed-in until vanished. […]
# The subject was scheduled for a follow-up office visit two weeks after the treatment. At the follow-up office visit, the subject was questioned as to their compliance with the instructions regarding which medications not to use between treatment and the two week follow-up office visit. […] If the subject was compliant, the subject was re-assessed using the gravimetric sweat measurement procedure.
# The study was conducted at multiple study sites and conducted in compliance with Good Clinical Practice standards. […] Two weeks after the treatment, each subject was re-assessed by gravimetric sweat measurement. […]
structure (smiles),measurement,setting,value
CCCCCCCCCCCCCC(=O)OC(C)C [Isopropyl Myristate],greater effectiveness in reducing sweat production than subjects treated with placebo,"1.89 mg per axilla topical, based on share of subjects with at least 30% reduction",191%
same,conclusion on activity in reducing sweat production,"1.89 mg per axilla topical, two weeks after treatment",biologically active in reducing sweat production
same,percent of subjects with at least a 30% reduction in sweat production compared to Baseline,"1.89 mg per axilla topical, two weeks after treatment, control group 29%",55%
same,greater reduction in sweat production than the subjects in the control group,"1.89 mg per axilla topical, two weeks after treatment, versus placebo (53 mg reduction)",195%
same,reduction in sweat production (average) as measured by gravimetric sweat measurement,"subjects with primary axillary hyperhidrosis, single topical treatment, 1.89 mg per axilla, two weeks after treatment, 5 minute collection",103 mg
